# Source: ChEMBL document CHEMBL1144192, “Synthesis and activity of 1-(3-amino-1-phenylpropyl)indolin-2-ones: a new class of selective norepinephrine reuptake inhibitors” (Bioorg Med Chem Lett, 2008)
# Legend:
# [1] = target: Sodium-dependent serotonin transporter (Homo sapiens, UniProt P31645); format: cell-based, JAR
# Description: Inhibition of serotonin uptake at human SERT expressed in JAR cells
# [2] = target: Sodium-dependent dopamine transporter (Homo sapiens) (UniProt Q01959); experiment: Displacement of [3H]WIN-35428 from human recombinant DAT expressed in CHO cells at 1 uM; format: cell-based
# Sequence of Sodium-dependent dopamine transporter (Homo sapiens) (Q01959 whole entry): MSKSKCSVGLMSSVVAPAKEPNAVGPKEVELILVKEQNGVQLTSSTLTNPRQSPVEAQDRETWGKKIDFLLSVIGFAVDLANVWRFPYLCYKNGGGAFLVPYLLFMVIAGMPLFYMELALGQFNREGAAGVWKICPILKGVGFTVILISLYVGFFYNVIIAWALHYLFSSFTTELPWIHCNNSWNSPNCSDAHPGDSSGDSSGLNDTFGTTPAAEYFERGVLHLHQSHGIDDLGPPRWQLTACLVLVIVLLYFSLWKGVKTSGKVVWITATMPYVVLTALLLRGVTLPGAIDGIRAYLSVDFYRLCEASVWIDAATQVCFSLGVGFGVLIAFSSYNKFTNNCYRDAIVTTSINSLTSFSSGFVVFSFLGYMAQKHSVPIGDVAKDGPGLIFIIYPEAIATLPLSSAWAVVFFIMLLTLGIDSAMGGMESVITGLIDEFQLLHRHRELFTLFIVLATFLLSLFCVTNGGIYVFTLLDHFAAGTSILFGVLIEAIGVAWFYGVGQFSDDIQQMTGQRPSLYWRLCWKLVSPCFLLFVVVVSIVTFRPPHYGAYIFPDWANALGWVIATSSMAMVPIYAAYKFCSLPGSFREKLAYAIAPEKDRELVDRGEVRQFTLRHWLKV
# [3] = target: Sodium-dependent noradrenaline transporter (Homo sapiens, UniProt P23975)
# Sequence of Sodium-dependent noradrenaline transporter (P23975 whole entry): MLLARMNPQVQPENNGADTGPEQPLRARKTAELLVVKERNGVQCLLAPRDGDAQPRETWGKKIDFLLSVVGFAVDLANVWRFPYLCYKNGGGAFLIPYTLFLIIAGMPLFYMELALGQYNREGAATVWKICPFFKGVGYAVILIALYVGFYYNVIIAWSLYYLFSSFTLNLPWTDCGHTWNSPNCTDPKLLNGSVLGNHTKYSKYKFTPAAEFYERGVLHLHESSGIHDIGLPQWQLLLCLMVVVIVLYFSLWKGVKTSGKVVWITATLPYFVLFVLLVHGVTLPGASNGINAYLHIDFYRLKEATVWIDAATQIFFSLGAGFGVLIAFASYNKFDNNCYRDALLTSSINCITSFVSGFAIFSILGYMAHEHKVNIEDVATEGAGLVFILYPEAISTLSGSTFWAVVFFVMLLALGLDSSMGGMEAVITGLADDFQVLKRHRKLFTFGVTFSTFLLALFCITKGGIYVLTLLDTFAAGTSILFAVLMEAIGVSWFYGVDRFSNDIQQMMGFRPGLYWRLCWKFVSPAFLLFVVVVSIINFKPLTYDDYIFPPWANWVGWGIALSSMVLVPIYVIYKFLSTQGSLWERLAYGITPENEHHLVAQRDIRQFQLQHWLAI
# Description: Inhibition of norepinephrine uptake at human NET expressed in MDCK cells
# Sequence of Sodium-dependent serotonin transporter (P31645 whole entry): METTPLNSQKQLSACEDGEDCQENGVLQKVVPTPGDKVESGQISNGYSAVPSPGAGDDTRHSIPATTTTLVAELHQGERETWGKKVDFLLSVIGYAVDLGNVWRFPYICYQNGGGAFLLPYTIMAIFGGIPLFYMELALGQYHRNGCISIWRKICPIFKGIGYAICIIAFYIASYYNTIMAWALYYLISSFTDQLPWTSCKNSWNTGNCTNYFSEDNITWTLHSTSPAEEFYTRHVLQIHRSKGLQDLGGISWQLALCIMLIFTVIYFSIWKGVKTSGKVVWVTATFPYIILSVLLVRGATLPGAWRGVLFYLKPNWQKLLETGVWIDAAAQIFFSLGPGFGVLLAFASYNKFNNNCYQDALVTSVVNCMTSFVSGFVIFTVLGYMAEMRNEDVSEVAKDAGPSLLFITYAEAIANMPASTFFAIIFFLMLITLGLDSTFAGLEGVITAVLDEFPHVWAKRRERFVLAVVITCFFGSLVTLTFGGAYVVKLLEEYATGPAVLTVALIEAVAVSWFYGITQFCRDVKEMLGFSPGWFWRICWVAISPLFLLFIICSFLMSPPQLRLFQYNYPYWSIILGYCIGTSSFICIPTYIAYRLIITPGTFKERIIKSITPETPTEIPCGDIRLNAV
IC50 [1] [nM],Activity [2] [%],IC50 [3] [nM],SMILES
1350,0,7,CNCC[C@H](c1ccccc1)N1C(=O)C(C)(C)c2ccccc21
290,10,7,CNCC[C@H](c1cccc(Cl)c1)N1C(=O)C(C)(C)c2cccc(F)c21
277,–,–,CNCCC(Oc1ccccc1OC)c1ccccc1 (configuration not stated) [NISOXETINE]
> 3000,0,19,CNCC[C@H](c1cc(F)cc(Cl)c1)N1C(=O)C(C)(C)c2cccc(F)c21
1950,3,> 3000,CNCC[C@@H](c1ccccc1)N1C(=O)C(C)(C)c2ccccc21
1150,1,> 3000,CNCC[C@@H](c1cccc(F)c1)N1C(=O)C2(CCCCC2)c2ccccc21
1750,0,> 3000,CNCC[C@@H](c1ccccc1)N1C(=O)C2(CCCCC2)c2ccccc21
327,44,47,CNCCC(c1ccccc1)n1ccc2ccccc21 (configuration not stated)
> 3000,26,53,CNCC[C@H](c1ccccc1)N1C(=O)C2(CCCCC2)c2ccccc21
> 3000,3,175,CNCC[C@H](c1ccccc1)N1C(=O)C(C)(C)c2cccc(F)c21
> 3000,20,26,CNCC[C@H](c1cccc(F)c1)N1C(=O)C2(CCCCC2)c2ccccc21
2550,7,14,CNCC[C@H](c1cccc(F)c1)N1C(=O)C(C)(C)c2cccc(F)c21
330,0,6,CNCC[C@H](c1cc(F)cc(F)c1)N1C(=O)C(C)(C)c2cccc(F)c21
